Experimental data from ChEMBL document CHEMBL3421543, “Melanocortin antagonist tetrapeptides with minimal agonist activity at the mouse melanocortin-3 receptor” (ACS Med Chem Lett, 2015).
Active and inactive are the calls of the source. The calls are words filed in the database; no cut-off is given here. Where a SMILES comes first, the peptide text is derived from it. [ ]: non-standard residue; d: D form. dPhe(4-I) = N[C@H](Cc1ccc(I)cc1)C(=O)O

What was measured:
Assay type in all cases: cell-based
Melanocortin receptor 5 = Melanocortin receptor 5 (Mus musculus, UniProt P41149); experiment: Agonist activity at mouse melanocortin-5 receptor transfected in HEK293 cells after 6 hrs by beta-galactosidase reporter gene assay
Sequence of Melanocortin receptor 5 (P41149 whole entry): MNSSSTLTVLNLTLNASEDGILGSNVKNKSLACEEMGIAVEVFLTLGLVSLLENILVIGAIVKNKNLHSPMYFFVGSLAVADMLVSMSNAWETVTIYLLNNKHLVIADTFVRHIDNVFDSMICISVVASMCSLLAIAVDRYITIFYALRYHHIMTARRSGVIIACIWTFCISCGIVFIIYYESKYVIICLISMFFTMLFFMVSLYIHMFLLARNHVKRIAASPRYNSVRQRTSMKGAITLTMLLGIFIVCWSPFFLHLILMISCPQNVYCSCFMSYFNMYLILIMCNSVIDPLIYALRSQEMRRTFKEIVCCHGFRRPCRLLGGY

Melanocortin receptor 4 [1] = target: T1, Melanocortin receptor 4 (Mus musculus, UniProt P56450); experiment: (§1) Antagonist activity at mouse melanocortin-4 receptor transfected in HEK293 cells assessed as inhibition of MTII-induced response after 6 hrs by Schild analysis; conditions: for Kb: read-out: pA2 (converted)
T1 sequence (P56450 whole entry): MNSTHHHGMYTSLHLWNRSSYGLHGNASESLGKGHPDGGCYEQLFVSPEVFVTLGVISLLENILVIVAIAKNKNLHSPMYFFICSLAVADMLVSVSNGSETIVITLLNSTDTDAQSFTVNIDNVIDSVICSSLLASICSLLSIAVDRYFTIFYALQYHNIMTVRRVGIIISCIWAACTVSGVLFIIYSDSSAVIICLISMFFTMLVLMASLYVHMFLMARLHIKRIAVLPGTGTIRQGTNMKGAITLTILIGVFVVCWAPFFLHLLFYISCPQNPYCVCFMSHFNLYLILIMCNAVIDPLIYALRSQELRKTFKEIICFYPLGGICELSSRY

[2] = target: Melanocortin receptor 4 (Mus musculus) (UniProt P56450); experiment: as §1
Sequence of Melanocortin receptor 4 (Mus musculus) (P56450 whole entry): as above

[3] = target: Melanocortin receptor 3 (Mus musculus) (UniProt P33033); experiment: Antagonist activity at mouse melanocortin-3 receptor transfected in HEK293 cells assessed as inhibition of MTII-induced response up to 100 uM after 6 hrs by Schild analysis
Sequence of Melanocortin receptor 3 (Mus musculus) (P33033 whole entry): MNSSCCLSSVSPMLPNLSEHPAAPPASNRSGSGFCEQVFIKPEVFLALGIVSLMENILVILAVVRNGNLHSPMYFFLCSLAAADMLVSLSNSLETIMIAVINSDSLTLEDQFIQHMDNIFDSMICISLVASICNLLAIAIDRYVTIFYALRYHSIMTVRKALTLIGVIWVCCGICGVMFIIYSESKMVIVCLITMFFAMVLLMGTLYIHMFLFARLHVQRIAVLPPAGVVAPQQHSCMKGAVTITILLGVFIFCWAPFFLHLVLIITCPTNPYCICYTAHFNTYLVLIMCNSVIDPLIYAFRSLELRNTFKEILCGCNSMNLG

[4] = target: Melanocyte-stimulating hormone receptor (Mus musculus, UniProt Q01727); experiment: Agonist activity at mouse melanocortin-1 receptor transfected in HEK293 cells after 6 hrs by beta-galactosidase reporter gene assay
Sequence of Melanocyte-stimulating hormone receptor (Q01727 whole entry): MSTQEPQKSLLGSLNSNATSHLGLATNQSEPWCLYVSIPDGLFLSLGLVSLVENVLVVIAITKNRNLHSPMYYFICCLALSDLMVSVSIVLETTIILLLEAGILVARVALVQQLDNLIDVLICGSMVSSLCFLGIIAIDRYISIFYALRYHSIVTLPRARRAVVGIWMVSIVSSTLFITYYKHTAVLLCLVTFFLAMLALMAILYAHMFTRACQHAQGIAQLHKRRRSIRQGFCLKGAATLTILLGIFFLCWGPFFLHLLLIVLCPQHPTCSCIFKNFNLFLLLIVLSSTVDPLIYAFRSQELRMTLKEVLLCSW

Melanocortin receptor 3 [5] = target: T2, Melanocortin receptor 3 (Mus musculus, UniProt P33033); experiment: Agonist activity at mouse melanocortin-3 receptor transfected in HEK293 cells after 6 hrs by beta-galactosidase reporter gene assay
T2 sequence (P33033 whole entry): as the sequence (P33033 whole entry) above

Melanocortin receptor 4 [6] = target: T1, Melanocortin receptor 4; experiment: Agonist activity at mouse melanocortin-4 receptor transfected in HEK293 cells after 6 hrs by beta-galactosidase reporter gene assay
Melanocortin receptor 3 [7] = target: T2, Melanocortin receptor 3; experiment: (§2) Antagonist activity at mouse melanocortin-3 receptor transfected in HEK293 cells assessed as inhibition of MTII-induced response after 6 hrs by Schild analysis; conditions: read-out: pA2 (converted)
[8] = target: Melanocortin receptor 4 (Mus musculus) (UniProt P56450); experiment: Agonist activity at mouse melanocortin-4 receptor transfected in HEK293 cells at 100 uM after 6 hrs by beta-galactosidase reporter gene assay relative to MTII-induced maximal response
[9] = target: Melanocortin receptor 3 (Mus musculus) (UniProt P33033); experiment: Agonist activity at mouse melanocortin-3 receptor transfected in HEK293 cells at 100 uM after 6 hrs by beta-galactosidase reporter gene assay relative to MTII-induced maximal response
[10] = target: Melanocortin receptor 3 (Mus musculus) (UniProt P33033); experiment: as §2
[11] = target: Melanocortin receptor 3 (Mus musculus) (UniProt P33033); experiment: Antagonist activity at mouse melanocortin-3 receptor transfected in HEK293 cells assessed as inhibition of MTII-induced response up to 10 uM after 6 hrs by Schild analysis
[12] = target: Melanocortin receptor 3 (Mus musculus) (UniProt P33033); experiment: Agonist activity at mouse melanocortin-3 receptor transfected in HEK293 cells at 1 uM after 6 hrs by beta-galactosidase reporter gene assay relative to MTII-induced maximal response

| SMILES | EC50 (Melanocortin receptor 5) | Kb (Melanocortin receptor 4 [1]) | EC50 [4] | EC50 (Melanocortin receptor 3 [5]) | EC50 (Melanocortin receptor 4 [6]) | other results |
| --- | --- | --- | --- | --- | --- | --- |
| CC(=O)N[C@@H](Cc1cnc[nH]1)C(=O)N[C@H](Cc1ccccc1)C(=O)N[C@@H](CCCNC(=N)N)C(=O)N[C@@H](Cc1c[nH]c2ccccc12)C(N)=O | – | – | – | – | – | pA2 [2]: inactive; pA2 [10]: inactive |
| CC(=O)N[C@@H](Cc1c[nH]c2ccccc12)C(=O)N[C@H](Cc1ccc(I)cc1)C(=O)N[C@@H](CCCNC(=N)N)C(=O)N[C@@H](Cc1csc2ccccc12)C(N)=O | 23.7 µM | 79.4 nM | 8.3 µM | > 100 µM | > 100 µM | inhibition [3]: inactive |
| CC(=O)N[C@@H](Cc1c[nH]c2ccccc12)C(=O)N[C@H](Cc1ccc(I)cc1)C(=O)N[C@@H](CCCNC(=N)N)C(=O)N[C@@H](Cc1ccc2ccccc2c1)C(N)=O | 20.3 µM | 5.01 nM | 5.5 µM | > 100 µM | > 100 µM | Ki (Melanocortin receptor 4 [1]): < 6 nM; Kb (Melanocortin receptor 3 [7]): 1260 nM |
| CCCC[C@H](NC(C)=O)C(=O)N[C@H]1CC(=O)NCCCC[C@@H](C(N)=O)NC(=O)[C@H](Cc2c[nH]c3ccccc23)NC(=O)[C@H](CCCNC(=N)N)NC(=O)[C@@H](Cc2ccc3ccccc3c2)NC(=O)[C@H](Cc2c[nH]cn2)NC1=O | – | – | 0.00067 µM | – | – | Activity [12]: 54% |

Second part, led by results:

| EC50 (Melanocortin receptor 5) | Kb (Melanocortin receptor 4 [1]) | EC50 [4] | EC50 (Melanocortin receptor 3 [5]) | EC50 (Melanocortin receptor 4 [6]) | SMILES | other results |
| --- | --- | --- | --- | --- | --- | --- |
| 7.8 µM | 501 nM | 20.7 µM | > 100 µM | > 100 µM | CC(=O)N[C@@H](Cc1c[nH]c2ccccc12)C(=O)N[C@H](Cc1ccc(I)cc1)C(=O)N[C@@H](CCCNC(=N)N)C(=O)N[C@@H](Cc1ccc(-c2ccccc2)cc1)C(N)=O | INH [2]: 480 nM; inhibition [3]: inactive |
| 19.7 µM | 5.01 nM | 5.8 µM | > 100 µM | > 100 µM | CC(=O)N[C@@H](Cc1c[nH]c2ccccc12)C(=O)N[C@H](Cc1ccc(I)cc1)C(=O)N[C@@H](CCCNC(=N)N)C(=O)N[C@H](Cc1ccc2ccccc2c1)C(N)=O | Ki (Melanocortin receptor 4 [1]): < 6 nM; Kb (Melanocortin receptor 3 [7]): 2000 nM |
| 1.8 µM | 158 nM | 6.5 µM | – | – | CC(=O)N[C@@H](Cc1c[nH]c2ccccc12)C(=O)N[C@H](Cc1ccc(I)cc1)C(=O)N[C@@H](CCCNC(=N)N)C(=O)N[C@@H](Cc1ccccc1)C(N)=O | Activity [8]: 44%; Activity [9]: 66% |
| 5.3 µM | 1000 nM | 2.7 µM | – | – | CC(=O)N[C@@H](Cc1c[nH]c2ccccc12)C(=O)N[C@H](Cc1ccc(I)cc1)C(=O)N[C@@H](CCCNC(=N)N)C(=O)N1Cc2ccccc2C[C@H]1C(N)=O | inhibition [11]: inactive; INH [2]: 1000 nM; Activity [8]: 44%; Activity [9]: 48% |
| 2.8 µM | – | 2 µM | > 100 µM | > 100 µM | CC(=O)N[C@@H](Cc1c[nH]c2ccccc12)C(=O)N[C@H](Cc1ccc(I)cc1)C(=O)N[C@@H](CCCNC(=N)N)C(=O)N[C@@H](Cc1c[nH]c2ccccc12)C(N)=O (Ac-W[dPhe(4-I)]RW-NH2) | – |
| 0.0046 µM | – | – | – | 0.0054 µM | CC(=O)N[C@@H](Cc1cnc[nH]1)C(=O)N[C@H](Cc1ccccc1)C(=O)N[C@@H](CCCN=C(N)N)C(=O)N[C@@H](Cc1c[nH]c2ccccc12)C(N)=O | – |
